In patent US11925637B2, “Phenylpiperazine proprotein convertase subtilisin/kexin type 9 (PCSK9) modulators and their use” (SRX Cardio, LLC, priority 2015, dated 2024):

Assays:
[1] = target: T1, recombinant PCSK9 (Homo sapiens, UniProt Q8NBP7); experiment: LDLR Flow (FACS) Assay (% inhibition of recombinant PCSK9); assay type: cell-based; details: 5.0 ug/mL recombinant PCSK9, HuH7 cells (FIG. 2), read-out: LDLR Flow Assay: % Inhibition of 5.0 ug/mL recombinant PCSK9 @ X compound dose; for inhibition at 1.25 µM: Huh-7, compound dose 1.25 uM; for inhibition at 10 µM: Huh-7, compound dose 10 uM; for inhibition at 0.313 µM: Huh-7, compound dose 0.313 uM; for inhibition at 20 µM: Huh-7, compound dose 20 uM
Experimental: The cells were incubated in 24-well plates for a total of 6 h in the absence or presence of recombinant PCSK9 protein (final concentration of 5.0 ug/ml), or in the presence of PCSK9 protein mixed with indicated concentration of experimental compound (Cmpd #). After 6 hours, the cells were released from the plate, stained with anti-LDLR antibody, then rinsed, counterstained with DAPI, and then measured by fluorescence activated cell sorting (FACS). The percent recombinant PCSK9 inhibition was calculated as [‘Compound Dose LDLR Fluorescence’−‘5.0 ug/ml PCSK9-treated LDLR Fluorescence’]/[‘No PCSK9 Basal LDLR Fluorescence’−‘5.0 ug/ml PCSK9-treated LDLR Fluorescence’]×100%.
LDLR levels can be measured using flow cytometry or fluorescence activated cell sorting (FACS) using protocols adapted from Benjannet et al., “Effects of the prosegment and pH on the activity of PCSK9: evidence for additional processing events” J Biol Chem. 285(52): 40965-40978 (2010) and “Composition and Methods of Use of Small Molecules as Binding Ligands for the Modulation of Proprotein Convertase Subtilisin/Kexin Type 9 (PCSK9) Protein Activity” (WO2016029037), which are incorporated by reference in their entirety.
Cells, such as HepG2, HuH7, FL83B, or a cell line transfected with a short-hairpin PCSK9 knockdown sequence such as HepG2/shPCSK9, HuH7/shPCSK9, or FL83B/shPCSK9 are plated and cultured at 37° C. for 12-24 h. Culture media is removed and replaced with fresh culture media or culture media plus a predetermined amount of recombinant PCSK9, for example a 10 nM final concentration of PCSK9. Cell culture media can be composed of DMEM (Invitrogen) with 10% fetal bovine serum (Life Technologies) supplemented with penicillin-streptomycin (Life Technologies). Cells are dosed with small molecule test compounds at doses ranging from 0 nM to 100 uM
Following an incubation period of specified length, such as 6 hours, the media is removed and the cells are rinsed three times with a rinse solution (i.e., Dulbecco's phosphate buffered saline (D-PBS, Life Technologies) supplemented with 0.5% bovine serum albumin (BSA, Sigma) and 1 g/L glucose (Sigma)). The fluid is then removed, and cells are released from the plate using TrypLE Express (Life Technologies) per manufacturer's recommend procedures, such as incubation for 5-10 minutes at 37° C. The TyrpLE-Cell suspension is then transferred to 15 mL conical tubes, volume is increased to 2 mL with D-PBS supplemented with 0.5% BSA and […] glucose, and the tubes are centrifuged at 250× gravity for 10 minutes. Following centrifugation, the supernatant is aspirated and the cell pellet is resuspended in 100 uL D-PBS containing 0.5% BSA and […] glucose, and cells are labeled with anti-LDLR antibody per the manufacturer's recommended procedure. The cells are then pelleted by centrifugation, resuspended in 300 uL PBS and counterstained with 4′,6-Diamidino-2-phenylindole (DAPI, Cayman Chemical) as a cell viability marker, other cell viability markers such as 7-aminoactinomycin D (7AAD, Life Technologies) have also been described in the art.
Cells are analyzed for both cell viability marker (dead cells) and LDLR in live cells using a flow cytometer per the manufacturer's operating manual. Cells incubated with small molecule compounds that are inhibitors of PCSK9 will be expected to show increased amounts of LDLR, relative to control (no compound) specimens, and cells incubated with small molecule compounds that are activators of PCSK9 will be expected to show decreased amounts of LDLR relative to control (no compound) specimens.

[2] = target: T1, recombinant PCSK9; experiment: DiI-LDL Uptake Assay (% inhibition of recombinant PCSK9); assay type: cell-based; details: 2.5 ug/mL recombinant PCSK9, HepG2 cells (FIG. 1), read-out: Uptake Assay: % Inhibition of 2.5 ug/mL recombinant PCSK9 @ X compound dose; for inhibition at 10 µM: compound dose 10 uM; for inhibition at 20 µM: compound dose 20 uM; for inhibition at 5 µM: compound dose 5 uM; for inhibition at 1.25 µM: compound dose 1.25 uM; for inhibition at 2.5 µM: compound dose 2.5 uM
Experimental: The cells were incubated in a 96-well plate for a total of 16 h in the absence or presence of recombinant PCSK9 (final concentration 2.5 ug/ml) protein alone or recombinant PCSK9 protein pre-mixed with indicated concentration of experimental compounds (Cmpd #). After 16 h, DiI-LDL (final concentration 5 ug/ml) was added to the incubation mixtures. After 4 h, cells are stained with Hoechst 33342 for 30 minutes, then rinsed with phosphate buffered saline, and then a final volume of 100 ul phosphate buffered saline was added to each well. The fluorescence was measured (DiI: excitation at 550 nm and emission at 590 nm; Hoechst: excitation at 355 nm, emission at 460 nm). The percent recombinant PCSK9 inhibition was calculated as [‘Compound Dose DiI Fluorescence’−‘2.5 ug/ml PCSK9-treated DiI Fluorescence’]/[‘No PCSK9 DiI Fluorescence’−‘2.5 ug/ml PCSK9-treated DiI Fluorescence’]×100%.
Cellular DiI-LDL uptake can be measured using protocols adapted from Benjannet et al., “Effects of the prosegment and pH on the activity of PCSK9: evidence for additional processing events” J Biol Chem. 285(52): 40965-40978 (2010) and “Composition and Methods of Use of Small Molecules as Binding Ligands for the Modulation of Proprotein Convertase Subtilisin/Kexin Type 9 (PCSK9) Protein Activity” (WO2016029037), which are incorporated by reference in their entirety.
Cells, such as HepG2, HuH7, FL83B, or a cell line transfected with a short-hairpin PCSK9 knockdown sequence such as HepG2/shPCSK9, HuH7/shPCSK9, or FL83B/shPCSK9 are plated and cultured at 37° C. for 12-24 h. Culture media is removed and replaced with fresh lipoprotein-depleted culture media supplemented with 5 ug/mL of DiI-LDL (Kalen Biomedical) or lipoprotein-depleted culture media supplemented with 5 ug/mL of DiI-LDL plus a predetermined concentration of recombinant PCSK9, for example a 10 nM final concentration of PCSK9. Lipoprotein-depleted culture media can be composed of DMEM (Invitrogen) with 10% lipoprotein-depleted fetal bovine serum (Kalen Biomedical) and supplemented with penicillin-streptomycin (Life Technologies). Cells are dosed with small molecule test compounds at doses ranging from 0 nM to 100 uM.
Following an incubation period of specified length, such as 6 hours, Hoechst 33342 (AnaSpec) stain is added to the cell media per manufacturer's instructions and incubated for a specified length (e.g., 30 minutes). The lipoprotein-depleted media is removed and cells rinsed three times with phosphate buffered saline. A final volume of phosphate buffered saline is added back to the wells. The DiI fluorescence is measured with a plate reader using an exciting wavelength of 550 nm and the resulting emission at 590 nm is measured. The Hoechst stain fluorescence is measured with a plate reader using an exciting wavelength of 355 nm and the resulting emission at 460 nm is measured.
Cells are analyzed by for both Hoechst stain (DNA content) and DiI-LDL fluorescence. Cells incubated with small molecule compounds that are inhibitors of PCSK9 will be expected to show increased amounts of DiI-LDL fluorescence, relative to control (no compound) specimens, and cells incubated with small molecule compounds that are activators of PCSK9 will be expected to show decreased amounts of DiI-LDL fluorescence relative to control (no compound) specimens.

T1 sequence (Q8NBP7 153-692): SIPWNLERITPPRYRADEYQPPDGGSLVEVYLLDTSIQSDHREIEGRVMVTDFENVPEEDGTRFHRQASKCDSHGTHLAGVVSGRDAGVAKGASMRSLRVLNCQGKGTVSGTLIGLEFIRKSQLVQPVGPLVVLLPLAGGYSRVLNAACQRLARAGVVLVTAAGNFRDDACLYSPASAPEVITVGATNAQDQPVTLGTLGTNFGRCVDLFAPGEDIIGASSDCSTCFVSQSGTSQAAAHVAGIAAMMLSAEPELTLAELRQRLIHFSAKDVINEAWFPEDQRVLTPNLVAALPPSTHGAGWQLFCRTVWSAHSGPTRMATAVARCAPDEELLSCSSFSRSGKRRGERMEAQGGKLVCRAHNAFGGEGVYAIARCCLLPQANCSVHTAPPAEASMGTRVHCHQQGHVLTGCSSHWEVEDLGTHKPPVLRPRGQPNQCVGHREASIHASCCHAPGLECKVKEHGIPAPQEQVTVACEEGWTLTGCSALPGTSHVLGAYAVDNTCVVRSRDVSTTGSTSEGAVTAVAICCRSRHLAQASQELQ

SMILES	inhibition at 1.25 µM [1] [%]	inhibition at 10 µM [1] [%]	inhibition at 20 µM [2] [%]	further results
c1ccc(COc2ccc(N3CCNCC3)cc2)cc1 [Compound 1, 1-(4-(benzyloxy)phenyl)piperazine]	~16	~34		inhibition at 10 µM [2]: > 100%
O=S(=O)(c1ccccc1)c1ccc(N2CCNCC2)c(F)c1 [Compound 2, 1-(2-fluoro-4-(phenylsulfonyl)phenyl)piperazine]	~45		> 100	inhibition at 5 µM ([1]; Huh-7, compound dose 5 uM): ~66%
c1ccc(Oc2ccc(N3CCNCC3)cc2)cc1 [Compound 3]	~20	~30		inhibition at 10 µM [2]: > 100%
Oc1cc(Oc2ccc(N3CCNCC3)cc2)ncn1 [Compound 4, 6-(4-(piperazin-1-yl)phenoxy)pyrimidin-4-ol]	~30			inhibition at 0.313 µM [1]: ~19%
O=S(=O)(c1ccc(N2CCNCC2)cc1)N1CCCC1 [Compound 5, 1-(4-(pyrrolidin-1-ylsulfonyl)phenyl)piperazine]	~10	~20		
Fc1ccc(Cc2ccc(N3CCNCC3)cc2)cc1 [Compound 6, 1-(4-(4-fluorobenzyl)phenyl)piperazine]	~15	~40		inhibition at 5 µM [2]: > 100%
O=C1CNCCN1c1ccc(Oc2ccccc2)cc1 [Compound 7, 1-(4-phenoxyphenyl)piperazin-2-one]	~18			
c1cc(C2CCNCC2)ccc1OC1CCCCC1 [Compound 8, 4-(4-(cyclohexyloxy)phenyl)piperidine]	~25	~35		inhibition at 0.313 µM [1]: ~15%; inhibition at 5 µM [2]: > 100%
c1cc(C2CCNCC2)ccc1OC1CCOCC1 [Compound 9, 4-(4-((tetrahydro-2H-pyran-4-yl)oxy)phenyl)piperidine]				inhibition at 20 µM [1]: ~23%
O=S(=O)(Nc1ccccc1)c1ccc(N2CCNCC2)cc1 [Compound 10, N-phenyl-4-(piperazin-1-yl)benzenesulfonamide]	> 10	> 25	> 100	inhibition at 20 µM [1]: > 40%
O=C(Nc1ccccc1)c1ccc(N2CCNCC2)cc1 [Compound 11, N-phenyl-4-(piperazin-1-yl)benzamide]			~49	
O=S(=O)(Nc1ccc2c(c1)CCCC2)c1ccc(N2CCNCC2)cc1 [Compound 12, 4-(piperazin-1-yl)-N-(5,6,7,8-tetrahydronaphthalen-2-yl)benzenesulfonamide]	~10	~25		inhibition at 20 µM [1]: ~45%; inhibition at 1.25 µM [2]: ~66%; inhibition at 2.5 µM [2]: > 100%
c1cc(N2CCNCC2)ccc1OC1CCCCC1 [Compound 13, 1-(4-(cyclohexyloxy)phenyl)piperazine]		~40	> 100	inhibition at 0.625 µM ([1]; Huh-7, compound dose 0.625 uM): ~20%
O=S(=O)(Nc1ccccc1)c1ccc(C2CCNCC2)cc1 [Compound 14, N-phenyl-4-(piperidin-4-yl)benzenesulfonamide]			> 100	
O=S(=O)(Nc1ccc2c(c1)CCCC2)c1ccc(C2CCNCC2)cc1 [Compound 15, 4-(piperidin-4-yl)-N-(5,6,7,8-tetrahydronaphthalen-2-yl)benzenesulfonamide]				inhibition at 1.25 µM [2]: > 50%; inhibition at 2.5 µM [2]: > 100%
